Data as given in ChEMBL document CHEMBL1201862, “PubChem BioAssay data set” (2004).
Calls of active or inactive are those of the source. Cut-off read from the data, not from the text of the source, for most assays here: actives have a measured EC50 and inactives only a lower limit.

Columns and labels:
[1] = target: T1, RNA-binding protein pos-1 (Caenorhabditis elegans, UniProt G5EF15); assay: disruptors of C. elegans POS-1 RNA interaction – biochemical, fluorescence polarization, dose response (AID 1964);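 note: purified POS-1 fused to maltose binding protein made in E. coli; potency of compounds blocking POS-1 binding to fluorescent RNA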
T1 sequence (G5EF15 whole entry): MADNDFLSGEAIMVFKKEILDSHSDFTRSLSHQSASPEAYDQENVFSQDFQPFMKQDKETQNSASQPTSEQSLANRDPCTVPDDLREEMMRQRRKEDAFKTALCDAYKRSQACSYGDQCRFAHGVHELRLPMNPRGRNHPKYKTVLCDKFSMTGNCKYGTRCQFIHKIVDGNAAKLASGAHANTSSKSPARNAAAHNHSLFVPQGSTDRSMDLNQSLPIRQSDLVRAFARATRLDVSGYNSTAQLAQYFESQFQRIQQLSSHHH

[2] = target: T2, Zinc finger protein mex-5 (Caenorhabditis elegans, UniProt Q9XUB2); assay: potency of MEX-5 RNA-binding blockers – biochemical, C. elegans, fluorescence polarization, dose response (AID 1960)
T2 sequence (Q9XUB2 whole entry): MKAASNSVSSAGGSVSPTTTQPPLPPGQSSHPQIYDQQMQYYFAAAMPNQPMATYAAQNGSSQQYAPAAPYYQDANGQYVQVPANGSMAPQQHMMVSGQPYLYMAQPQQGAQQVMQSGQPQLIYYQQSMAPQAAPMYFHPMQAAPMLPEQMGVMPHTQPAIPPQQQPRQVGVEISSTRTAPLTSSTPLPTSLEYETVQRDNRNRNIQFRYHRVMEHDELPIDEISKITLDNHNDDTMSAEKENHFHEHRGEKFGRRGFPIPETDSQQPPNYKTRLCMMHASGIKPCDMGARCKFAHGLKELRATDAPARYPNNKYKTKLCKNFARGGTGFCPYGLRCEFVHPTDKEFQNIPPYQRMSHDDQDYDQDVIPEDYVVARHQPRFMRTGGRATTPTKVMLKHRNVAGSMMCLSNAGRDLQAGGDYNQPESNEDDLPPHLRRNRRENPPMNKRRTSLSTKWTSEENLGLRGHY

[3] = NIH-3T3 fibroblast cytotoxicity, dose response, cytotoxicity control, cell-based, fluorescence, Alamar Blue, secondary assay (AID 2327); assay type: functional;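 note: NIH-3T3 mouse fibroblasts cultured with fluconazole at 8 µg/mL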
[4] = fluconazole-exposed Candida albicans growth modulators – fluorescence, retest, confirmation (AID 2467); assay type: functional, cell-based
[5] = alpha-synuclein stem-loop luciferase translation blockers – H4 neuroglioma cells, luminescence, confirmation (AID 1988); assay type: functional, cell-based
[6] = Luminescence Cell-Based Dose Response HTS to Identify Inhibitors of 5'UTR Stem-Loop Driven Prion Protein mRNA Translation in H4 Neuroglioblastoma Cells. [Related pubchem assays: 1827 (Project Summary), 1813 (Primary HTS)]; assay type: functional
[7] = luciferase reporter signal suppression in cells – H4 neuroglioma cells, luminescence, dose response (AID 1990); assay type: functional, cell-based
[8] = target: T3, Heat shock factor protein 1 (Mus musculus, UniProt P38532); assay: enhancement of HSF1-driven luciferase signal – cell-based, NIH3T3, luminescence, dose retest, confirmation (AID 435004); assay type: functional;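 note: stress induced by proteasome inhibitor MG132 added 30 min after compound; luciferase reporter driven by HSF1 response element in NIH3T3 cells; actives raise luminescence as potentiators of the MG132 stress response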
T3 sequence (P38532 whole entry): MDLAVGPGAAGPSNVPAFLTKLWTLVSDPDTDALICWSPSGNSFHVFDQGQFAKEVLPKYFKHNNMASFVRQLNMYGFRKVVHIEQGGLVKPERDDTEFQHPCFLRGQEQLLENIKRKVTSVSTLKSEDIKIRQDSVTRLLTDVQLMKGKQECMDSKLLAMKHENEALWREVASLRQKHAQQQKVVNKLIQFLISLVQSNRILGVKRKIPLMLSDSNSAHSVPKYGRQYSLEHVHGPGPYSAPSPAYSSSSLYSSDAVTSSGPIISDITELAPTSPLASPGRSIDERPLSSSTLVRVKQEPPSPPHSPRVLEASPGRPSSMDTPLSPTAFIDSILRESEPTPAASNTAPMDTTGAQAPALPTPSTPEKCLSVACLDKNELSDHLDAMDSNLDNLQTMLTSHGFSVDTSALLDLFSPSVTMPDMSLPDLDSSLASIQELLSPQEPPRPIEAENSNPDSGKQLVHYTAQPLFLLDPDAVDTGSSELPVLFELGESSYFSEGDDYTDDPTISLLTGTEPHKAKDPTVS

[9] = Luminescence Cell-Based Dose Retest to Confirm Inhibitors of Cancer Stem Cells. [Related pubchem assays (depositor defined):AID2717, AID2721]; assay type: functional, Homo sapiens; details: Homo sapiens
[10] = tested on: Streptococcus sp. 'group A'; assay: Streptococcus pyogenes SK(-)GAS viability under kanamycin – luminescence, BacTiterGlo, confirmation, counter-screen for streptokinase expression inhibitor project, dose response (AID 1900); assay type: functional, organism-based
[11] = tested on: Streptococcus; assay: GAS UMAA2166 growth inhibition – luminescence, BacTiterGlo, counter-screen for streptokinase expression inhibitor project, dose response (AID 1915); assay type: functional, organism-based;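 note: potency for reduction of bacterial viability or growth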
[12] = NIH3T3 cell viability loss – ATP luminescence, mouse fibroblasts, counter-screen, dose response (AID 2010); assay type: functional, cell-based;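 note: cells exposed to compound for about 90 hours before reading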
[13] = Trypanosoma cruzi growth suppression in host cells – NIH3T3 host cells, beta-gal luminescence, confirmation (AID 2044); assay type: functional, cell-based;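 note: intracellular parasites grown in NIH/3T3 mouse fibroblasts as host cells; luminescent beta-galactosidase reporter signal from transgenic T. cruzi replicating inside host cells; inhibitors lower the luminescence signal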
[14] = target: T4, Streptokinase A (Streptococcus pyogenes serotype M1, UniProt P10520); assay: viability-normalized secreted streptokinase activity reduction – plasminogen activation absorbance, OD405, dose response (AID 1914); assay type: functional, Streptococcus pyogenes M1 GAS;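 note: secreted streptokinase activity via plasminogen activation per viability signal from cell pellet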
T4 sequence (P10520 whole entry): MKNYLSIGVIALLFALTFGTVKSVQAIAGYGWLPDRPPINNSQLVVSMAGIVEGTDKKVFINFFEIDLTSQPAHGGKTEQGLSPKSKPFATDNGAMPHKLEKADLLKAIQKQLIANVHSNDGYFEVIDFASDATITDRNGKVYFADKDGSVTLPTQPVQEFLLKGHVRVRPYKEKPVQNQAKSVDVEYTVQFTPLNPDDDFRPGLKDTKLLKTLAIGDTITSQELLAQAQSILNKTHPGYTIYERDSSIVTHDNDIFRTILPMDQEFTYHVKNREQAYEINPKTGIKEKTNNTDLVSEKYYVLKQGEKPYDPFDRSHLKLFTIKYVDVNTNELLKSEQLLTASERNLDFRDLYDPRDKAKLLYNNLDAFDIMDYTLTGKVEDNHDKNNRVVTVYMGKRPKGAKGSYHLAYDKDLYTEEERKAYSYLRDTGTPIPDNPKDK
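Throughout, for AC50: cells exposed to compound for roughly 70 hours or longer before luminescence read.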

N#Cc1c(NC(=O)/C=C/C(=O)O)sc2c1CCN(Cc1ccccc1)C2
EC50 [1]: 31 µM (active)
EC50 [2]: 25.5 µM (active)

O=C(O)c1cc(-c2ccc(O)cc2)on1
EC50 [3]: > 160 µM (inactive)
EC50 [4]: > 38 µM (not active)

FC(F)(F)COc1nc(OCC(F)(F)F)nc(N2CCN(c3ccccc3)CC2)n1
EC50 [3]: > 160 µM (inactive)
EC50 [4]: > 38 µM (not active)

O=[N+]([O-])c1ccc(OCc2cn([C@@H](CO)c3ccccc3)nn2)c(Br)c1
EC50 [5]: > 120 µM (not active)
EC50 [6]: > 120 µM (not active)
EC50 [7]: > 120 µM (not active)

CCN(C(=O)c1cc(Cl)ccc1OC)C1CCCCC1
EC50 [1]: > 300 µM (not active)
EC50 [2]: > 300 µM (not active)

Cc1ccc(C)c(NC(S)=NNC(=O)c2csc(C)c2)c1
EC50 [3]: 67.2 µM (active)
EC50 [4]: 0.947 µM (active)

COc1ccc(N/C=C2/C(=O)NC(=S)N(Cc3ccccc3)C2=O)c(OC)c1
EC50 [8]: 2.74 µM (active)
EC50 [1]: > 300 µM (inconclusive)
EC50 [2]: > 300 µM (inconclusive)

CCOC(=O)C1Nc2ccc(C)cc2C2C=CCC12 (configuration not stated)
EC50 [1]: > 300 µM (not active)
EC50 [2]: > 300 µM (not active)

O=C(NC(=S)Nn1cnc2c(cnn2-c2ccccc2)c1=O)c1ccc(Cl)cc1
EC50 [3]: 143 µM (inconclusive)
EC50 [4]: > 38 µM (not active)

O=S(=O)(Nc1ccc(O)c2ccccc12)c1ccc(Br)cc1
EC50 [1]: 36 µM (active)
EC50 [2]: 22.9 µM (active)

CCCCCCCSc1nc(N)cc(O)n1
EC50 [3]: > 150 µM (inactive)
EC50 [4]: 4.49 µM (active)

CC1CCc2nc(NCCO)nc(C(F)(F)F)c2C1 (configuration not stated)
EC50 [5]: > 120 µM (not active)
EC50 [6]: 26.1 µM (active)
EC50 [7]: 12.5 µM (active)

O=C(O)c1ccc2c(c1)C1C=CCC1C(c1ccncc1)N2 (configuration not stated)
EC50 [1]: 58.5 µM (active)
EC50 [2]: 24.3 µM (inconclusive)

COc1cc(C2C(C#N)=C(N)OC3=C2C(=O)CCC3)cc2c1OCO2 (configuration not stated)
EC50 [1]: > 300 µM (not active)
EC50 [2]: > 300 µM (not active)

O=c1cc(N2CCCCC2)c(-c2ccccc2)nn1Cc1c(Cl)cccc1Cl
AC50 [9]: 4.43 µM (active)
EC50 [5]: > 120 µM (not active)
EC50 [10]: 5.65 µM (active)
EC50 [11]: 5.18 µM (active)
EC50 [6]: > 120 µM (not active)
EC50 [7]: 14.8 µM (active)

C=CCn1c(Cc2nc3ccccc3[nH]2)n[nH]c1=S
EC50 [1]: 80.2 µM (active)
EC50 [2]: 1.1 µM (active)

NC(=O)c1sc2nc3c(c(-c4ccc(Cl)cc4)c2c1N)CCCC3
EC50 [5]: 12.3 µM (active)
EC50 [6]: > 120 µM (not active)
EC50 [7]: 12.5 µM (active)

CC(=O)C(=NNc1nc2c([nH]1)c(=O)n(C)c(=O)n2C)C(C)=O
EC50 [1]: 73.9 µM (active)
EC50 [2]: 12.7 µM (active)

Clc1cccc(CN2CCN(Cc3nc(CCc4ccccc4)no3)CC2)c1
EC50 [5]: > 120 µM (not active)
EC50 [8]: > 260 µM (inactive)
EC50 [6]: 32.3 µM (active)
EC50 [7]: > 120 µM (not active)

CC(C)CNC(=O)C1Nc2ccc(C(F)(F)F)cc2C2C=CCC12 (configuration not stated)
EC50 [1]: > 300 µM (not active)
EC50 [2]: > 300 µM (not active)

COC(=O)c1cc(C(=O)OC)cc(-n2c(C)cc(C(=O)COC(=O)CNS(=O)(=O)c3ccc(C)cc3)c2C)c1
EC50 [1]: > 300 µM (not active)
EC50 [2]: > 300 µM (not active)

COC(=O)C1CCN(C(=O)COC(=O)Cc2c[nH]c3ccccc23)CC1
EC50 [5]: > 120 µM (not active)
EC50 [6]: > 120 µM (not active)
EC50 [7]: > 120 µM (not active)

O=c1c([N+](=O)[O-])c[nH]c2nc(-c3ccncc3)nn12
EC50 [5]: > 120 µM (not active)
EC50 [6]: 14.2 µM (active)
EC50 [7]: 15.8 µM (active)

O=S(=O)(NCC(c1ccco1)N1CCN(c2ccc(F)cc2)CC1)c1ccc2c(c1)OCCO2 (configuration not stated)
EC50 [3]: > 150 µM (inactive)
EC50 [4]: > 38 µM (not active)

O=C(CC12CC3CC(CC(C3)C1)C2)NC(=S)NCc1ccccc1
EC50 [5]: 16.8 µM (active)
EC50 [6]: 18.4 µM (active)
EC50 [7]: 13.1 µM (active)

Cc1cc(/C=C2\C(=O)NC(=O)N(c3cccc(F)c3)C2=O)c(C)n1-c1ccc(C(=O)O)c(Cl)c1
EC50 [1]: > 300 µM (not active)
EC50 [2]: > 300 µM (not active)

Cc1cccc(NC2=NC(=O)CS2)c1
EC50 [1]: > 300 µM (not active)
EC50 [2]: > 300 µM (not active)

Cc1n[nH]c(C)c1CCNCc1ccc(OCC(O)CN2CCCCC2)cc1 (configuration not stated)
EC50 [3]: > 150 µM (inconclusive)
EC50 [4]: > 38 µM (not active)

Cc1cccc(C)c1NC(=O)COC(=O)c1cccc2c1C(=O)c1ccccc1C2=O
EC50 [5]: > 120 µM (not active)
EC50 [8]: 30.8 µM (active)
EC50 [6]: 13.3 µM (active)
EC50 [7]: 13.9 µM (active)

Cc1cc(C)c2c(N)c(C(=O)c3ccc(Cl)cc3Cl)sc2n1
EC50 [5]: 13.8 µM (active)
EC50 [6]: 19.4 µM (active)
EC50 [7]: 12.2 µM (active)

O=C(NCCc1c[nH]c2ccccc12)C1CCC(Cn2c(=S)[nH]c3ccccc3c2=O)CC1 (configuration not stated)
AC50 [9]: 0.582 µM (active)
EC50 [5]: 32.1 µM (active)
EC50 [6]: > 120 µM (not active)
EC50 [12]: > 60 µM (not active)
EC50 [13]: 1.07 µM (active)
EC50 [7]: 16.9 µM (active)

Cc1cccc(/N=N/c2c(C)[nH]n(C(N)=S)c2=O)c1C
EC50 [3]: > 150 µM (inactive)
EC50 [4]: 3.07 µM (active)

COc1cccc(N/N=C2/C(=O)Nn3c2nc(C)cc3=O)c1
EC50 [1]: > 300 µM (inconclusive)
EC50 [2]: < 0.06 µM (inconclusive)

Cc1ccc(S(=O)(=O)N(C)CC(=O)N/N=C/c2ccc(C)o2)cc1
EC50 [5]: > 120 µM (not active)
EC50 [6]: > 120 µM (not active)
EC50 [7]: > 120 µM (not active)

O=C1CCCCC/C1=N/Nc1ccc(OCc2ccccc2)cc1
EC50 [3]: > 150 µM (inactive)
EC50 [4]: > 38 µM (not active)

N=C(N)c1ccc(OCCCCCOc2ccc(C(=N)N)cc2)cc1
EC50 [5]: 9.9 µM (active)
EC50 [10]: < 0.06 µM (active)
EC50 [11]: < 0.06 µM (active)
EC50 [6]: 10.9 µM (active)
EC50 [14]: 27.9 µM (active)
EC50 [7]: 11.5 µM (active)
